Like-named read-outs stand apart in the source and are kept apart here.
Assays:
IFV B/Lee/40 = experiment: microbe, parasite or virus in culture; format: cell-based; conditions: unidentified influenza virus, 120 h
[1] = test system: IFV A/California/2/2014 (H3N2); experiment: microbe, parasite or virus in culture; format: cell-based; conditions: Influenza A virus, 120 h
[2] = molecular target: Influenza A H1N1 (A/California/04/2009) Neuraminidase/NA (Influenza A virus (A/California/04/2009(H1N1)), UniProt C3W5S3); experiment: biochemical; conditions: neuraminidase 1 U/ml
H1N1(A/PR/8/34) virus = experiment: microbe, parasite or virus in culture; format: cell-based; conditions: Influenza A virus, 96 h
in vitro = format: cell-based; conditions: dog
Procedure: • Toxicity of the tested compounds to MDCK cells was quantified by MDCK cell lines. […] The cell control without compound was also configured. The cells were incubated in an incubator for 4 days. • 4) 50 μL of Cell-titer Glo was added to each well, and the chemiluminescence was detected by a Microplate Reader. Inhibition rate=(average value of cell control−value of tested compounds)/average value of cell control […]

[3] = test system: A/Chicken/Jiangsu/k0402/2010 (H5N1); experiment: microbe, parasite or virus in culture; format: cell-based; conditions: Influenza A virus, H5N1, MDCK, 72 h
[4] = test system: B/Jiangsu/YZ08/2018 (Yamagata); experiment: microbe, parasite or virus in culture; format: cell-based; conditions: unidentified influenza virus, MDCK cells, 72 hours
B/YZ29/2019 (Victoria) = experiment: microbe, parasite or virus in culture; format: cell-based; conditions: unidentified influenza virus, MDCK cells, 72 hours
[5] = test system: A/Chicken/Eastern/JTC11/2013 (H7N9); experiment: microbe, parasite or virus in culture; format: cell-based; conditions: Influenza A virus, H7N9, MDCK, 72 h
H1N1(A/PR/8/34) = experiment: microbe, parasite or virus in culture; format: cell-based, influenza virus H1N1(A/PR/8/34); conditions: Influenza A virus, MDCK, 96 h
[6] = MDCK cells, H1N1(A/PR/8/34), 4 days, Cell-titer Glo
[7] = IFV B/Lee/40, MDCK cells, 5 days, read-out: EC50
[8] = IFV A/California/2/2014 (H3N2), MDCK cells, 5 days, read-out: EC50

| SMILES | IC50 [2] [nM] | EC50 (H1N1(A/PR/8/34) virus; [6]) [nM] | CC50 at 4 days (in vitro) [nM] | other results |
| --- | --- | --- | --- | --- |
| O=C1c2c(O)c(=O)ccn2N([C@@H]2c3ccccc3SCc3c2ccc(F)c3F)[C@@H]2COCCN12 [Baloxavir, baloxivir] | – | – | – | EC50 (IFV B/Lee/40; MDCK): 1.47 nM; EC50 ([1]; H3N2, MDCK): 0.39 nM |
| C#CCOCCOCCOCCOCCOC(=O)N(CCOCCN(C)C(=O)O[C@@H]([C@@H]1OC(C(=O)O)=C[C@H](NC(=N)N)[C@H]1NC(C)=O)[C@H](O)CO)CCOCCN(C)C(=O)O[C@@H]([C@@H]1OC(C(=O)O)=C[C@H](NC(=N)N)[C@H]1NC(C)=O)[C@H](O)CO [C-Inter-1] | 10.4 | 0.28 | > 100000 | – |
| C#CCOCCOCCOCCOCCNC(=O)N(CCOCCN(C)C(=O)O[C@@H]([C@@H]1OC(C(=O)O)=C[C@H](NC(=N)N)[C@H]1NC(C)=O)[C@H](O)CO)CCOCCN(C)C(=O)O[C@@H]([C@@H]1OC(C(=O)O)=C[C@H](NC(=N)N)[C@H]1NC(C)=O)[C@H](O)CO [C-Inter-2] | 14.2 | 0.42 | > 100000 | – |
| C#CCOCCOCCOCCN1CCC(N(CCOCCN(C)C(=O)O[C@@H]([C@@H]2OC(C(=O)O)=C[C@H](NC(=N)N)[C@H]2NC(C)=O)[C@H](O)CO)CCOCCN(C)C(=O)O[C@@H]([C@@H]2OC(C(=O)O)=C[C@H](NC(=N)N)[C@H]2NC(C)=O)[C@H](O)CO)CC1 [C-Inter-3] | 21.3 | 0.39 | > 100000 | – |
| C#CCOCCOCCOCCN1CCN(C(=O)N(CCOCCN(C)C(=O)O[C@@H]([C@@H]2OC(C(=O)O)=C[C@H](NC(=N)N)[C@H]2NC(C)=O)[C@H](O)CO)CCOCCN(C)C(=O)O[C@@H]([C@@H]2OC(C(=O)O)=C[C@H](NC(=N)N)[C@H]2NC(C)=O)[C@H](O)CO)CC1 [C-Inter-4] | 48.7 | – | – | – |
| C#CCOCCOCCOCCOC1CCN(C(=O)N(CCOCCN(C)C(=O)O[C@@H]([C@@H]2OC(C(=O)O)=C[C@H](NC(=N)N)[C@H]2NC(C)=O)[C@H](O)CO)CCOCCN(C)C(=O)O[C@@H]([C@@H]2OC(C(=O)O)=C[C@H](NC(=N)N)[C@H]2NC(C)=O)[C@H](O)CO)CC1 [C-Inter-5] | 37 | 0.45 | > 100000 | – |
| C#CCOCCOCCOCCOCCN(C)C(=O)N(CCOCCN(C)C(=O)O[C@@H]([C@@H]1OC(C(=O)O)=C[C@H](NC(=N)N)[C@H]1NC(C)=O)[C@H](O)CO)CCOCCN(C)C(=O)O[C@@H]([C@@H]1OC(C(=O)O)=C[C@H](NC(=N)N)[C@H]1NC(C)=O)[C@H](O)CO [C-Inter-6] | 11.9 | 0.25 | > 100000 | – |
| C#CCOCCOCCOCCOCCNS(=O)(=O)N(CCOCCN(C)C(=O)O[C@@H]([C@@H]1OC(C(=O)O)=C[C@H](NC(=N)N)[C@H]1NC(C)=O)[C@H](O)CO)CCOCCN(C)C(=O)O[C@@H]([C@@H]1OC(C(=O)O)=C[C@H](NC(=N)N)[C@H]1NC(C)=O)[C@H](O)CO [C-Inter-7] | 7.64 | 0.57 | > 100000 | – |
| C#CCOCCOCCOCCNC(=N)N(CCOCCN(C)C(=O)O[C@@H]([C@@H]1OC(C(=O)O)=C[C@H](NC(=N)N)[C@H]1NC(C)=O)[C@H](O)CO)CCOCCN(C)C(=O)O[C@@H]([C@@H]1OC(C(=O)O)=C[C@H](NC(=N)N)[C@H]1NC(C)=O)[C@H](O)CO [C-Inter-10] | 10.8 | 0.39 | > 100000 | – |
| CCC(CC)O[C@@H]1C=C(C(=O)O)C[C@H](N)[C@H]1NC(C)=O [Oseltamivir acid] | – | – | – | EC50 [3]: 210 nM; EC50 [4]: 780 nM; EC50 (B/YZ29/2019 (Victoria)): 710 nM; EC50 [5]: 540 nM; EC50 (IFV B/Lee/40; [7]): 801 nM; EC50 [1, 8]: > 100000 nM |
| CC(=O)N[C@H]1[C@H]([C@H](O)[C@H](O)CO)OC(C(=O)O)=C[C@@H]1N=C(N)N [Zanamivir, zanamivir, reference compound] | – | – | – | EC50 [4]: 90 nM; EC50 (B/YZ29/2019 (Victoria)): 59 nM; EC50 (IFV B/Lee/40; [7]): 57.5 nM; EC50 [1, 8]: > 10000 nM; EC50 (H1N1(A/PR/8/34) virus; MDCK): 39.7 nM; EC50 (H1N1(A/PR/8/34)): 45.7 nM; CC50 (in vitro): > 100000 nM |

Reference: patent US20250144220A1, “CONJUGATE FOR PREVENTING AND TREATING VIRAL INFECTIONS AND USE THEREOF” (priority 2021, published 2025)
